In publication PMC10398685 (ACS Omega, 2023):

How the values were obtained:
[1] = tested on: SARS-CoV-2; assay: microbe, parasite or virus in culture; assay type: cell-based; details: Severe acute respiratory syndrome coronavirus 2, Vero C1008, 72 h; VeroE6 cells, MOI~0.03, 3 days incubation, CPE by XTT; read-out: EC50 (anti-SARS-CoV-2 activity)
[2] = Plasma stability, mouse; assay type: in vitro ADME; details: 5uM, triplicates
[3] = in vitro; details: African green monkey
[4] = tested on: CCRF-CEM cells; assay: Steady-state intracellular uptake in CCRF-CEM cells; assay type: in vitro ADME; details: 60 min incubation, 50 μM at t = 0
Excerpt: (§1) While an enzymatic MTase assay represents a valuable fast screening platform providing the information that can be directly used for SAR analyses, it is not fully predictive for the compounds’ activity in whole cells. In order to verify the ability of the compounds to reach the intracellular compartment, we measured the steady-state accumulation of representative compounds in intact CCRF-CEM, VERO-E6, and Calu-3 cells (Tables 3 and S2). […] Compound 12q was almost completely cleared from the medium after 60 min incubation with the cells rendering it among the most permeable compounds of the series based on Kp values. It should be noted that the apparent intracellular concentration of the compounds may be biased by their potential metabolism. Therefore, we decided to subject the selected derivatives to in vitro stability studies. […]
(§2) 3.3. Intracellular Uptake
(§3) Steady-state cellular uptake was measured in CCRF-CEM cells (ATCC, CRL-119), VERO-E6 cells (ATCC, CRL-1586) and Calu-3 cells (HTB-55), respectively. Suspension cells (CCRF-CEM) were treated as follows: Prior to the experiment, cells were washed by centrifugation (250 x g, 5 min) in prewarmed (37 °C) serum-free RPMI medium and resuspended in the same vehicle to a concentration of 2 x 10^7 cells per mL. The cell suspension was distributed into the microtubes in 500 μL aliquots (10^7 cells), and the uptake process was initiated by the addition of 2.5 μL of the 10 mM DMSO solutions of the compounds (50 μM final conc.). Samples were incubated for 60 min at 37 °C in a CO 2 incubator using a rotary stirrer. The uptake was terminated by centrifugation at 900 x g for 5 min, at +4 °C. The medium was stored at −20 °C for later analysis of the extracellular concentration of the compounds. The cells were washed two times with 1 mL PBS (900 x g, 5 min, +4 °C), and also stored at −20 °C for subsequent analysis of the intracellular concentration of the compounds. At the day of the analysis, both media and the pelleted cells were quickly thawed. The cell pellets were extracted with 200 μL of ice-cold methanol by vigorous shaking, further diluted 1:1 with water and centrifuged at 20 000 x g for 10 min. As for the media samples, 10 μL aliquots were extracted with 990 μL of 50% methanol. The samples were then transferred to ECHO® -compatible 384-well plates and the amount of analytes were quantified by the ECHO -MS® System (Sciex) where acoustic droplet ejection module is coupled with Sciex 6500® triple quadrupole mass spectrometer operating with an electrospray ionization source. Spectrometer was run in the multiple reaction monitoring (MRM) mode. When necessary, the processed samples were further diluted in 50% methanol to fit in the calibration range. Calibration curves of the compounds in 50% methanol were measured alongside the samples within the same run. The ra tio between the total compound concentration in the cells and compound concentration in the medium (K p) at t=60 min was calculated according to: Kp = (Acell / Vcell) / Cmedium, where Acell is the amount of compound in the cell lysate, Vcell is the CCRF-CEM cell volume (3.38 μL/10^7 cells)16 and Cmedium is the compound concentration in the medium sample after correcting for sample dilution. Experiments were performed in duplicates. […]

[5] = as above; assay type: in vitro ADME; details: human, CCRF-CEM cells, 60 min incubation, 50 μM at t = 0, read-out: Kp (intracellular accumulation ratio IC/EC)
Excerpt: as §1, §2, §3

[6] = Plasma stability, human; assay type: in vitro ADME; details: 5uM, triplicates, 37 °C
Method: The microsomal half-lives (t1/2) were calculated using the equation t1/2=0.693/k, where k is the slope found in the linear fit of the natural logarithm of the fraction remaining of the parent compound vs. incubation time. […]
To determine plasma stability of the compounds, 5 μM of these were incubated with human pooled plasma from 50 donors (Biowest) for 120 min and 240 min at 37 °C. The reactions were terminated by adding four volumes of ice -cold methanol, the samples were then mixed vigorously and left at -20 °C for 1 h. After that, the samples were centrifuged, and the supernatant was analyzed by means of ECHO -MS® System (Sciex). Zero time points were prepared by adding ice-cold methanol to the compound prior the addition of the plasma. […]

| Structure (SMILES) | EC50 [1] [µM] | Plasma stability Rem. at 120 min [2] [%] | Plasma stability T1/2 [2] | CC50 at 3 days [3] [µM] | EC (extracellular concentration in the media at t = 60 min) ± sd [4] [µM] | IC (intracellular concentration in the cells at t = 60 min) ± sd [4] | Kp at 1 h, 50 µM [5] | Plasma stability Rem. at 120 min [6] [%] | Plasma stability T1/2 [6] |
| --- | --- | --- | --- | --- | --- | --- | --- | --- | --- |
| COc1ccc(S(=O)(=O)N(C)C[C@H]2O[C@@H](n3cc(C#Cc4ccc(C(N)=O)cc4)c4c(N)ncnc43)[C@H](O)[C@@H]2O)cc1C#N [Compound 12r] | > 100 | 113.5 ± 6.0 | Stable | > 100 | 12 ± 6 | 10,708 ± 358 μM | 897 | 89.7 ± 0.6 | Stable |
| COc1ccc(S(=O)(=O)N(C)C[C@H]2O[C@@H](n3cc(C#Cc4cccnc4)c4c(N)ncnc43)[C@H](O)[C@@H]2O)cc1C#N [Compound 12s] | > 100 | 102.7 ± 3.4 | Stable | > 100 | 15 ± 3 | – | 604 | 86.9 ± 0.9 | Stable |
| CCN(C[C@H]1O[C@@H](n2cc(C#Cc3ccc(N)nc3)c3c(N)ncnc32)[C@H](O)[C@@H]1O)S(=O)(=O)c1ccc(OC)c(C#N)c1 [Compound 12h] | > 100 | 108.2 ± 4.2 | Stable | > 100 | 14 ± 1 | – | 480 | 102.3 ± 4.8 | Stable |
| CCN(C[C@H]1O[C@@H](n2cc(C#Cc3ccc(C(N)=O)cc3)c3c(N)ncnc32)[C@H](O)[C@@H]1O)S(=O)(=O)c1ccc(OC)c(C#N)c1 [Compound 12o] | > 100 | 115.4 ± 3.7 | Stable | > 100 | 13 ± 3 | – | 694 | 95.6 ± 5.1 | Stable |
| CCN(C[C@H]1O[C@@H](n2cc(C#Cc3nc4ccccc4[nH]3)c3c(N)ncnc32)[C@H](O)[C@@H]1O)S(=O)(=O)c1ccc(OC)c(C#N)c1 [Compound 12a] | > 100 | 119.2 ± 6.0 | Stable | > 100 | 34 ± 0 | – | 188 | 84.3 ± 2.6 | Stable |
| COc1ccc(S(=O)(=O)N(C)C[C@H]2O[C@@H](n3cc(C#Cc4cnc5ccccc5c4)c4c(N)ncnc43)[C@H](O)[C@@H]2O)cc1C#N [Compound 12q] | > 100 | 113.2 ± 3.7 | Stable | > 100 | 0.6 ± 0.1 | – | 5320 | 97.2 ± 4.1 | Stable |
| CCN(C[C@H]1O[C@@H](n2cc(C#Cc3cnc4ccccc4c3)c3c(N)ncnc32)[C@H](O)[C@@H]1O)S(=O)(=O)c1ccc(OC)c(C#N)c1 [Compound 12e] | > 100 | 120.8 ± 10.5 | Stable | > 100 | 0.2 ± 0.0 | – | – | 76.3 ± 13.7 | Stable |
| CCN(C[C@H]1O[C@@H](n2cc(C#Cc3cccnc3)c3c(N)ncnc32)[C@H](O)[C@@H]1O)S(=O)(=O)c1ccc(OC)c(C#N)c1 [Compound 12l] | > 100 | 109.9 ± 1.0 | Stable | > 100 | 29 ± 0 | – | 163 | 89.8 ± 2.0 | Stable |
